Where two headings read alike, the source gives them in different places. Values belong to the compound of their own block, whether it stands above or below them.
Columns and labels:
[1] = Example 9 pharmacokinetics assay for the PK and PD study Part I, II and III (plasma, tumor, liver); assay type: in vivo, BALB/c nude mice; conditions: mouse, po, 100 mg/kg, p.o., single dose, ± SEM
Method: For the PK and PD study Part I, agents were administered to BALB/c nude mice bearing A375 human melanoma xenografts tumors. Dabrafenib, Compound 218 and Compound 157 were dosed via p.o. once on day 1. Dabrafenib was dosed at 100 mg/kg. Compound 218 and Compound 157 were dosed at 10 mg/kg.
For the PK and PD study Part II, agents were administered to BALB/c nude mice bearing A375 human melanoma xenografts tumors. Compound 133, Compound 144 and Compound 198 were dosed at 10 mg/kg via p.o. once on day 1.
For the PK and PD study Part III, agent was administered to BALB/c nude mice bearing A375 human melanoma xenografts tumors. Compound 204 were dosed at 10 mg/kg via p.o. once on day 1.
The plasma samples were collected at predetermined time points for PK analysis. The mice were euthanized at predetermined time points post the treatment. The blood samples were collected into the 1.5 mL Eppendorf tubes containing 15 μL of 0.5 M EDTA-K2. And then the anticoagulant blood samples were centrifuged at 2,500 g at 4° C. for 15 minutes. The plasma samples were separated into 2 aliquots. The 1st was used for PK analysis, and the 2nd served as backup. The samples were stored at −80° C. before bioanalysis.
The tumor samples were collected at predetermined time points for PK and WB analysis. The tumor was dissected out and split into 3 parts. The 1st part was used for PK analysis, the 2nd part was used for WB analysis and the last one served as backup for study. The samples were transferred into pre-labeled tubes and quickly froze in liquid nitrogen within 2 minutes after dissection. The samples were stored at −80° C. before bioanalysis.
Liver samples were collected at predetermined time points for PK analysis. The left lobe of the liver was dissected out and split into 2 parts. The 1st part was used for PK analysis and the 2nd part served as the backup for the study. The samples were transferred into pre-labeled tubes and quickly froze in liquid nitrogen within 2 minutes after dissection. The samples were stored at −80° C. before bioanalysis.
The harvested plasma, tumor and liver samples were processed for pharmacokinetics analysis by LC-MS/MS with a concentration range of 5.00-10,000 ng/mL for Compound 218, Compound 157 and Compound 133 in plasma, 0.500-1,000 ng/ml for Compound 218 in liver and tumor homogenate, 0.200-400 ng/mL for Compound 157, Dabrafenib and Compound 133 in liver and tumor homogenate, 0.500-1000 ng/mL for Dabrafenib and Compound 204 in plasma, 0.200-200 ng/mL for Compound 204 in liver and tumor homogenate, 20.0-20,000 ng/mL for Compound 144 and Compound 198 in plasma, 1.00-1,000 ng/mL for Compound 144 and Compound 198 in liver and tumor homogenate.

[2] = Pharmacokinetics in female BALB/c nude mice bearing A375 xenografts, 1 day dosing (PK and PD study): plasma, tumor and brain concentrations, AUC; assay type: in vivo; conditions: 100 mg/kg p.o. QD × 1 day; for Mean Concentration in Brain ± SEM / Mean Concentration in Plasma ± SEM: BQL: below the lower limit of quantitation
Source text: The concentrations of Dabrafenib, Compound 26 and Compound 141 in the treatment of female BALB/c nude mice bearing A375 xenografts are shown in Table 62-Table 72 and FIG. 52-FIG. 73.

[3] = system: A375 human melanoma xenografts; assay: Example 8 efficacy study in A375 human melanoma xenografts (tumor volume, T/C, TGI); assay type: in vivo, BALB/c nude mice; conditions: 35 mg/kg, p.o., QD × 21 days
Method: For efficacy study, agents were tested in the A375 human melanoma xenografts model. Compound 8, Compound 26, and Compound 38 were administered to BALB/c nude mice bearing A375 xenografts from day 0 and dosed p.o. twice per day (BID). Compound 8 and Compound 26 were dosed at 10 mg/kg for 21 days. Compound 38 was dosed at 10 mg/kg for 10 days. The known BRAF inhibitor encorafenib was used as a positive control. encorafenib was administered from day 1 and dosed p.o. daily (QD) for 21 days and dosed at 35 mg/kg.
The A375 tumor cells were maintained in vitro in DMEM medium supplemented with […] and 1% Penicillin-Streptomycin at 37° C. in an atmosphere of 5% CO2 in air. The tumor cells were routinely subcultured twice weekly. The cells growing in an exponential growth phase were harvested and counted for tumor inoculation.
Each mouse was inoculated subcutaneously at the right flank with A375 cells (5×10^6) in 0.2 mL of PBS supplemented with Matrigel (PBS:Matrigel=1:1) for tumor development. Animals were grouped for treatment 16 days after tumor inoculation when the average tumor volume reached 234 mm^3 for efficacy study and 382 mm^3 for PKPD study. The test articles administration and the animal numbers in each group are shown in the above experimental tables.
Prior to the onset of drug treatment, mice were measured for tumor size in two dimensions using a caliper, and the tumor volume (mm^3) was calculated using formula V=0.5 a×b^2 where a and b are the long and short diameters of the tumor in mm, respectively. Mice were randomized into different treatment groups based on the tumor volume.
The major endpoint was to see if the tumor growth could be delayed or mice could be cured. The tumor size was then used for calculations of T/C value. The T/C value (in percent) is an indication of antitumor effectiveness; T and C are the mean volumes of the treated and control groups, respectively on specified day.
TGI was calculated for each group using the formula: TGI (%)=[1−(Ti−T0)/(Ci−C0)]×100; Ti is the average tumor volume of a treatment group on a given day, T0 is the average tumor volume of the treatment group on the day of treatment start, Ci is the average tumor volume of the vehicle control group on the same day with Ti, and C0 is the average tumor volume of the vehicle group on the day of treatment start.

[4] = liver, read-out: Mean Concentration in Liver
[5] = plasma, read-out: Mean Concentration in Plasma
[6] = tumor, read-out: Mean Concentration in Tumor
[7] = mouse, brain, po, 100 mg/kg, read-out: Mean Concentration in Brain ± SEM
[8] = mouse, plasma, po, 100 mg/kg, read-out: Mean Concentration in Plasma ± SEM
[9] = mouse, tumor, po, 100 mg/kg, read-out: Mean Concentration in Tumor ± SEM

concentration at 6 h [1, 4]: 1010 ± 111 ng/g | concentration at 12 h [1, 4]: 277 ± 125 ng/g | concentration at 1 h [1, 5]: 5920 ± 2380 ng/mL | concentration at 6 h [1, 5]: 259 ± 45.4 ng/mL | concentration at 12 h [1, 5]: 88.7 ± 42.7 ng/mL | concentration at 24 h [1, 5]: 1.09 ± 0.467 ng/mL | concentration at 1 h [1, 6]: 4920 ± 1490 ng/g | concentration at 6 h [1, 6]: 237 ± 4.91 ng/g | concentration at 12 h [1, 6]: 54 ± 13.5 ng/g | concentration at 24 h [1, 6]: 1.87 ± 0.9 ng/g | Mean Concentration in Brain ± SEM ([2]; 10 h): BQL^a | Mean Concentration in Brain ± SEM ([2]; 24 h): BQL | Mean Concentration in Plasma ± SEM ([2]; 36 h): BQL | Mean Concentration in Plasma ± SEM ([2]; 48 h): BQL | concentration at 1 h [2, 7]: 1040 ± 349 ng/g | concentration at 4 h [2, 7]: 6.13 ng/g | concentration at 48 h ([2]; mouse, brain, po, 100 mg/kg, 48 h, read-out: Mean Concentration in Brain ± SEM): 15.2 ng/g | AUC at 24 h ([2]; mouse, brain, po, read-out: Brain AUC at 24 hours, Average): 1580 ng·h/mL | concentration at 0.25 h ([2]; mouse, plasma, po, 100 mg/kg, 0.25 h, read-out: Mean Concentration in Plasma ± SEM): 62200 ± 10900 ng/mL | concentration at 0.5 h ([2]; mouse, plasma, po, 100 mg/kg, 0.5 h, read-out: Mean Concentration in Plasma ± SEM): 44700 ± 11600 ng/mL | concentration at 1 h [2, 8]: 7490 ± 1360 ng/mL | concentration at 2 h ([2]; mouse, plasma, po, 100 mg/kg, 2 h, read-out: Mean Concentration in Plasma ± SEM): 844 ± 198 ng/mL | concentration at 4 h [2, 8]: 110 ± 37.6 ng/mL | concentration at 8 h ([2]; mouse, plasma, po, 100 mg/kg, 8 h, read-out: Mean Concentration in Plasma ± SEM): 55.6 ± 15.5 ng/mL | concentration at 10 h ([2]; mouse, plasma, po, 100 mg/kg, 10 h, read-out: Mean Concentration in Plasma ± SEM): 25.9 ± 2.09 ng/mL | concentration at 24 h ([2]; mouse, plasma, po, 100 mg/kg, 24 h, read-out: Mean Concentration in Plasma ± SEM): 0.616 ng/mL | AUC at 24 h ([2]; mouse, plasma, po, read-out: Plasma AUC at 24 hours, Average): 32100 ng·h/mL | concentration at 1 h [2, 9]: 8660 ± 4660 ng/g | concentration at 4 h [2, 9]: 442 ± 257 ng/g | concentration at 10 h ([2]; mouse, tumor, po, 100 mg/kg, 10 h, read-out: Mean Concentration in Tumor ± SEM): 18 ± 1.88 ng/g | concentration at 24 h ([2]; mouse, tumor, po, 100 mg/kg, 24 h, read-out: Mean Concentration in Tumor ± SEM): 253 ng/g | concentration at 48 h ([2]; mouse, tumor, po, 100 mg/kg, 48 h, read-out: Mean Concentration in Tumor ± SEM): 4.66 ng/g | AUC at 24 h ([2]; mouse, tumor, po, read-out: Tumor AUC at 24 hours, Average): 1680 ng·h/mL
SMILES: CC(C)(C)c1nc(-c2cccc(NS(=O)(=O)c3c(F)cccc3F)c2F)c(-c2ccnc(N)n2)s1 [Dabrafenib, dabrafenib, reference compound]

SMILES: COC(=O)N[C@@H](C)CNc1nccc(-c2cn(C(C)C)nc2-c2cc(Cl)cc(NS(C)(=O)=O)c2F)n1 [Encorafenib, encorafenib, reference compound]
T/C ([3]; PG-D21): 14.94% | TGI ([3]; PG-D21): 98.67% | Tumor Size on PG-D21 (Mean ± SEM) ([3]; PG-D21): 254 ± 19 mm^3 | Tumor Volume (mean ± SEM) ([3]; day 0): 234 ± 6 mm^3 | Tumor Volume (mean ± SEM) ([3]; day 3): 329 ± 17 mm^3 | Tumor Volume (mean ± SEM) ([3]; day 6): 347 ± 21 mm^3 | Tumor Volume (mean ± SEM) ([3]; day 9): 251 ± 20 mm^3 | Tumor Volume (mean ± SEM) ([3]; day 13): 194 ± 16 mm^3 | Tumor Volume (mean ± SEM) ([3]; day 17): 194 ± 15 mm^3 | Tumor Volume (mean ± SEM) ([3]; day 21): 254 ± 19 mm^3

Reference: US20260297060A1, “COMPOUNDS FOR THE DEGRADATION OF MUTANT BRAF” (C4 THERAPEUTICS, INC., priority 2023, published 2026)
